Reference: patent publication US4333933A, “Benzoguanamine derivatives, their production and pharmaceutical compositions containing the same” (Nippon Shinyaku Co., Ltd., priority 1980, dated 1982)

System: carrageenin edema
Test: Carrageenin edema inhibition activity (for rats)
Assay type: in vivo
Conditions: Rattus norvegicus, ip; for inhibition in vivo at 50 mg/kg: 50 mg/kg i.p.; for inhibition in vivo at 100 mg/kg: 100 mg/kg i.p.
Text: In Table 2 below, carrageenin edema inhibition activity (for rats) of representative compounds of the present invention is illustrated: […]

| Structure (SMILES) | inhibition in vivo at 50 mg/kg [%] | inhibition in vivo at 100 mg/kg [%] |
| --- | --- | --- |
| Nc1nc(NC(=O)c2cccnc2)nc(-c2ccc(Cl)cc2)n1 [Compound 1] | 56.8 | 57.2 |
| Nc1nc(NC(=O)c2cccnc2)nc(-c2cccc(Cl)c2)n1 [Compound 2] | 43.6 | 54.2 |
| Nc1nc(NC(=O)c2cccnc2)nc(-c2ccccc2Cl)n1 [Compound 3] | 37.1 | 45.5 |
| Nc1nc(NC(=O)c2cccnc2)nc(-c2ccc(Br)cc2)n1 [Compound 4] | 44.4 | 49.3 |
| Nc1nc(NC(=O)c2cccnc2)nc(-c2cccc(Br)c2)n1 [Compound 5] | 41.9 | 40.2 |
| Nc1nc(NC(=O)c2cccnc2)nc(-c2ccccc2I)n1 [Compound 9] | 38.1 | 40.5 |
| Nc1nc(NC(=O)c2cccnc2)nc(-c2ccc(F)cc2)n1 [Compound 10] | 53.8 | 56.1 |
| Nc1nc(NC(=O)c2cccnc2)nc(-c2cccc(F)c2)n1 [Compound 11] | 49 | 47.1 |
| Nc1nc(NC(=O)c2cccnc2)nc(-c2ccc(Cl)c(Cl)c2)n1 [Compound 13] | 40.9 | 49.2 |
| Nc1nc(NC(=O)c2cccnc2)nc(-c2cc(Cl)ccc2Cl)n1 [Compound 15] | 43.2 | 54.5 |
| Nc1nc(NC(=O)c2cccnc2)nc(-c2cc(Cl)ccc2F)n1 [Compound 19] | 34.2 | 47.8 |
| Nc1nc(NC(=O)c2cccnc2)nc(-c2ccc(Cl)cc2F)n1 [Compound 20] | 42.7 | 50.8 |
| Nc1nc(NC(=O)c2cccnc2)nc(-c2cc(Br)ccc2Br)n1 [Compound 21] | 35.6 | 40.6 |
| Nc1nc(NC(=O)c2cccnc2)nc(-c2cc(F)ccc2Cl)n1 [Compound 24] | 46.5 | 45.1 |
| Nc1nc(NC(=O)c2cccnc2)nc(-c2cc(F)ccc2Br)n1 [Compound 25] | 40.7 | 45.9 |
| Nc1nc(NC(=O)c2cccnc2)nc(-c2cc(F)ccc2F)n1 [Compound 27] | 51.2 | 53.6 |
| Nc1nc(NC(=O)c2cccnc2)nc(-c2ccc(Cl)cc2Br)n1 [Compound 28] | 42.8 | 48.4 |
| Nc1nc(NC(=O)c2cccnc2)nc(-c2cc(Br)ccc2Cl)n1 [Compound 29] | 38.7 | 49.2 |
